Experimental data from publication PMC8951032, “Study of Biological Activities and ADMET-Related Properties of Novel Chlorinated N-arylcinnamamides” (International Journal of Molecular Sciences, 2022).
In brackets after ≈: the same amount, converted by molar mass. Where two headings read alike, the source gives them in different places.

Experiments:
[1] = system: Enterococcus faecalis ATCC 29212; experiment: In vitro antienterococcal activity, microtitration broth MIC; type: cell-based
[2] = system: vancomycin-resistant E. faecalis (VRE) 725B; experiment: as above; type: cell-based, Enterococcus faecalis; conditions: 24 h
[3] = system: Mycobacterium smegmatis ATCC 700084; experiment: In vitro antimycobacterial activity, broth dilution MIC; type: cell-based; conditions: Mycolicibacterium smegmatis
[4] = system: porcine monocyte-derived macrophages (MDM); experiment: In vitro cell viability, CCK-8; type: cell-based; conditions: Sus scrofa, Macrophage, 10% fetal bovine serum
Procedure: The effect of the compounds on viability of eukaryotic cells was evaluated on human leukemia cell line THP-1, human synovial cell line SW982, and isolated primary porcine monocytes-delivered macrophages (MDM). The general cytotoxic effect was studied on THP-1 cells in the serum-free medium (only THP-1 as the only cells used in this study are able to survive in serum-free medium). Most of the compounds had no cytotoxic effect on THP-1 cells. […] This could be caused by the direct interaction of such compounds with serum proteins or by the effect of mitogens, cytokines, and hormones present in the serum. Obviously, the full medium is closer to physiological conditions in living organisms, so it can be assumed that these compounds could be non-toxic there.
Porcine monocyte-derived macrophages (MDMs) were prepared, as described previously. Briefly, blood was collected from three-month-old pigs and peripheral blood mononuclear cells (PBMC) were isolated by gradient centrifugation (830× g, 40 min) using Histopaque-1077 (Sigma). CD14+ cells were isolated by positive magnetic bead selection with LS separation columns (Miltenyi Biotec, Bergisch Gladbach, Germany). Isolated monocytes were cultured in 96-well plates at a concentration of 1 × 10^5 cells per well in 0.2 mL of DMEM supplemented with 10% FBS and 1% antibiotics (Antibiotic Antimycotic Solution 100 × 10,000 units penicillin, 10 mg streptomycin, and 25 μg amphotericin B per mL; Sigma) and incubated for five days at 37 °C in 5% CO2 to differentiate into macrophages. Then, MDMs were cultured for 24 h with tested substances and the relative cell viability was determined by CCK-8 kit (Sigma) following manufacturer instructions.

THP-1 cells = experiment: Cell death assay by flow cytometry (Annexin V / LIVE/DEAD); type: cell-based, human; conditions: serum-free medium, 24 h
Procedure: Subsequently, compounds 2k and 2q were selected for analysis by flow cytometry and cytotoxic effects were detected after treatment of cells by 2k and 2q in serum-free medium at two selected concentrations, 1.0 µM and 0.5 µM, respectively. […] Moreover, 2k increased the number of dead cells (20%) (Figure 2). […] Thus, it can be assumed that 2k attenuates cell metabolism.
Annexin V eFluor450 (Invitrogene, Waltham, MA, USA) with LIVE/DEAD Fixable Far Red Dead Cell Stain Kit (Invitrogene) were used for the analysis of cell death. THP-1 cells resuspended in serum-free medium and treated by two selected drugs, such as 2q and 2k, by IC50 concentrations, 0.5 µM and 1.0 µM, respectively, for 24 h. Cells were double-stained by AnnexinV eFluor 450 (1:20) and LIVE/DEAD Fixable Far Red (3:1000). Finally, the cells were analysed by flow cytometer (Amnis CellStream; Luminex, Austin, TX, USA) and the data were evaluated by CellStream Analysis 1.2.55 software. The dot plots were divided into four quadrants. Live cells (low left quadrant), apoptosis (upper-left quadrant) and necrosis as a terminal stage of cell death (upper-right quadrant) were distinguished. Experiments were performed in duplicates and in three independent repetitions.

[5] = ATCC29212, 24 h, E. faecalis reference strain, read-out: log(1/MIC [M]) EF (converted)
[6] = ATCC29212, E. faecalis reference strain, 24 h, read-out: MIC EF
[7] = read-out: log(1/MIC [M]) VRE3 (converted)
[8] = ATCC700084, 72 h, M. smegmatis ATCC 700084, three days, read-out: MIC MS
[9] = ATCC700084, M. smegmatis ATCC 700084, read-out: log(1/MIC [M]) MS (converted)
[10] = 24 h, read-out: IC50 MDM 10% FSB
[11] = read-out: log(1/IC50 [M]) MDM 10% FSB (converted)

MIC [1, 5]	MIC [1, 6]	MIC ([2]; read-out: MIC VRE3)	MIC [2, 7]	MIC [3, 8]	MIC [3, 9]	SMILES	IC50 [4, 10]	IC50 [4, 11]	number of dead cells (THP-1 cells; 2k 1.0 µM)	apoptosis (in words) (THP-1 cells; 2q 0.5 µM)	necrosis (in words) (THP-1 cells; 2q 0.5 µM)
1.12e-05 M (≈ 4.04 µg/mL)	1.11e-05 M (≈ 4 µg/mL)	1.11e-05 M (≈ 4 µg/mL)	1.12e-05 M (≈ 4.04 µg/mL)	2.78e-06 M (≈ 1 µg/mL)	2.75e-06 M (≈ 0.992 µg/mL)	O=C(/C=C/c1ccc(Cl)c(Cl)c1)Nc1ccc(C(F)(F)F)cc1 [2j, (2E)-3-(3,4-Dichlorophenyl)-N-[4-(trifluoromethyl)phenyl]prop-2-enamide]	> 1e-05 M	> 1e-05 M			
> 0.000794 M	> 0.000786 M	> 0.000786 M	> 0.000794 M	> 0.000786 M	> 0.000794 M	O=C(/C=C/c1ccc(Cl)cc1)Nc1cccc(C(F)(F)F)c1 [1i, (2E)-3-(4-Chlorophenyl)-N-[3-(trifluoromethyl)phenyl]prop-2-enamide]	> 1e-05 M	> 1e-05 M			
0.000871 M (≈ 254 µg/mL)	0.000876 M (≈ 256 µg/mL)	> 0.000876 M	> 0.000871 M	1.36e-05 M (≈ 3.97 µg/mL)	1.38e-05 M (≈ 4.03 µg/mL)	O=C(/C=C/c1ccc(Cl)c(Cl)c1)Nc1ccccc1 [2a, (2E)-3-(3,4-Dichlorophenyl)-N-phenylprop-2-enamide]	> 1e-05 M	> 1e-05 M			
2.24e-05 M (≈ 8.06 µg/mL)	2.22e-05 M (≈ 8 µg/mL)	4.44e-05 M (≈ 16 µg/mL)	4.47e-05 M (≈ 16.1 µg/mL)	5.55e-06 M (≈ 2 µg/mL)	5.5e-06 M (≈ 1.98 µg/mL)	O=C(/C=C/c1ccc(Cl)c(Cl)c1)Nc1cccc(C(F)(F)F)c1 [2i, (2E)-3-(3,4-Dichlorophenyl)-N-[3-(trifluoromethyl)phenyl]prop-2-enamide]	> 1e-05 M	> 1e-05 M			
> 0.000776 M	> 0.000783 M	> 0.000783 M	> 0.000776 M	2.45e-05 M (≈ 8 µg/mL)	2.45e-05 M (≈ 8.02 µg/mL)	O=C(/C=C/c1ccc(Cl)cc1)Nc1cc(Cl)cc(Cl)c1 [1p, (2E)-3-(4-Chlorophenyl)-N-(3,5-dichlorophenyl)prop-2-enamide]	> 1e-05 M	> 1e-05 M			
4.68e-06 M (≈ 1.76 µg/mL)	1.06e-05 M (≈ 3.99 µg/mL)	2.13e-05 M (≈ 8.01 µg/mL)	2.14e-05 M (≈ 8.04 µg/mL)	1.06e-05 M (≈ 3.99 µg/mL)	2.34e-06 M (≈ 0.882 µg/mL)	O=C(/C=C/c1ccc(Cl)c(Cl)c1)Nc1ccc(OC(F)(F)F)cc1 [2k, (2E)-3-(3,4-Dichlorophenyl)-N-[4-(trifluoromethoxy)phenyl]prop-2-enamide]	> 1e-05 M	> 1e-05 M	20%		
0.000324 M (≈ 127 µg/mL)	0.000325 M (≈ 128 µg/mL)	0.000325 M (≈ 128 µg/mL)	0.000324 M (≈ 127 µg/mL)	2.54e-06 M (≈ 1 µg/mL)	2.51e-06 M (≈ 0.989 µg/mL)	O=C(/C=C/c1ccc(Cl)cc1)Nc1cc(C(F)(F)F)cc(C(F)(F)F)c1 [1q, (2E)-N-[3,5-bis(Trifluoromethyl)phenyl]-3-(4-chlorophenyl)prop-2-enamide]	> 1e-05 M	> 1e-05 M			
1.07e-05 M (≈ 4.59 µg/mL)	4.67e-06 M (≈ 2 µg/mL)	4.67e-06 M (≈ 2 µg/mL)	4.68e-06 M (≈ 2 µg/mL)	2.34e-06 M (≈ 1 µg/mL)	1.07e-05 M (≈ 4.59 µg/mL)	O=C(/C=C/c1ccc(Cl)c(Cl)c1)Nc1cc(C(F)(F)F)cc(C(F)(F)F)c1 [2q, (2E)-N-[3,5-bis(Trifluoromethyl)phenyl]-3-(3,4-dichlorophenyl)prop-2-enamide]	5e-06 to 1e-05 M			not observed	significantly induced
